# Laboratory results reported in patent US10316211B2, “Stabilizer and coating compositions thereof” (SWIMC LLC, priority 2012, dated 2019).
# Target: T1, human estrogen receptor (Homo sapiens, UniProt P03372)
# T1 sequence (P03372 1-595): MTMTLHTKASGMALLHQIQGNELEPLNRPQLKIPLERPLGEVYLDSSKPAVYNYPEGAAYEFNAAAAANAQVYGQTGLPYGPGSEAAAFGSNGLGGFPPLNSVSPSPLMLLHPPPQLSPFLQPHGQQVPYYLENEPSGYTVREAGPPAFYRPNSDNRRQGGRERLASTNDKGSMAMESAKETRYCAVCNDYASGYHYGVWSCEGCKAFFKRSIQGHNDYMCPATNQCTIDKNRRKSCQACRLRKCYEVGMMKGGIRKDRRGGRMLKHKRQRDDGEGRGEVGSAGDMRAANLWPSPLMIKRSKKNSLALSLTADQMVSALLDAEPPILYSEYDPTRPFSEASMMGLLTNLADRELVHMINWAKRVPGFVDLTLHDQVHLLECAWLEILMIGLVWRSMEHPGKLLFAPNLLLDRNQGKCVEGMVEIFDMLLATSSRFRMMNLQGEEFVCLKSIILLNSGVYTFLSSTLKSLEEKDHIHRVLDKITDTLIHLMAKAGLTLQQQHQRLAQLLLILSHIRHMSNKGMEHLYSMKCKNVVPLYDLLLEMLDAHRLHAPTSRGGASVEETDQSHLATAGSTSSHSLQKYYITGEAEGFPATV
# Experiment: suitable in vitro assay whose results correlate with the MCF-7 assay (estrogenic activity)
# Settings: in vitro assay correlated to MCF-7 assay through common reference compounds
row,SMILES,estrogenic activity
1,"Cc1cc(Cc2cc(C)c(O)c(C)c2)cc(C)c1O [Structure 6, 4,4′-methylenebis(2,6-dimethylphenol)]",do not exhibit appreciable estrogenic activity
2,"CCCC(c1cc(C(C)(C)C)c(O)cc1C)c1cc(C(C)(C)C)c(O)cc1C [Structure 7, 4,4′-butylidenebis(2-t-butyl-5-methylphenol)]",do not exhibit appreciable estrogenic activity
3,"CC(C)(C)c1cc(Cc2cc(C(C)(C)C)c(O)c(C(C)(C)C)c2)cc(C(C)(C)C)c1O [Structure 8, 4,4′-methylenebis(2,6-di-t-butylphenol)]",do not exhibit appreciable estrogenic activity
4,Cc1cc(Cc2cc(C)cc(C(C)(C)C)c2O)c(O)c(C(C)(C)C)c1 [Structure 9],do not exhibit appreciable estrogenic activity
5,"CC(C)(C)c1cc(O)c(C(C)(C)C)cc1O [Structure 12, 2,5-di-t-butylhydroquinone]",do not exhibit appreciable estrogenic activity

# Test system: MCF-7, clone WS8 cells
# Experiment: MCF-7 cell proliferation assay of estrogenic activity
# Format: cell-based, human
# Settings: log10 of Relative Proliferative Effect (EC50 ratio versus 17-beta estradiol times 100); b102 calls the values expected or measured
# From the text: The MCF-7 assay is a useful test for assessing whether a polyhydric phenol compound is appreciably non-estrogenic. The MCF-7 assay uses MCF-7, clone WS8 cells to measure whether and to what extent a substance induces cell proliferation via estrogen receptor (ER)-mediated pathways. The method is described in “Test Method Nomination: MCF-7 Cell Proliferation Assay of Estrogenic Activity” submitted for validation by CertiChem, Inc. to the National Toxicology Program Interagency Center for the Evaluation of Alternative Toxicological Methods (NICEATM) on Jan. 19, 2006 (available online at iccvam.niehs.nih.gov/methods/endocrine/endodocs/SubmDoc.pdf).
# A brief summary of the method of the aforementioned MCF-7 assay is provided below. MCF-7, clone WS8 cells are maintained at 37° C. in RMPI (Roswell Park Memorial Institute medium) containing Phenol Red (e.g., GIBCO Catalog Number 11875119) and supplemented with the indicated additives for routine culture. An aliquot of cells maintained at 37° C. are grown for two days in phenol-free media containing 5% charcoal stripped fetal bovine serum in a 25 cm^2 tissue culture flask. Using a robotic dispenser such as an EPMOTION™ 5070 unit, MCF-7 cells are then seeded at 400 cells per well in 0.2 ml of hormone-free culture medium in Corning 96-well plates. The cells are adapted for 3 days in the hormone-free culture medium prior to adding the chemical to be assayed for estrogenic activity. The media containing the test chemical is replaced daily for 6 days. At the end of the 7 day exposure to the test chemical, the media is removed, the wells are washed once with 0.2 ml of HBSS (Hanks' Balanced Salt Solution), and then assayed to quantify amounts of DNA per well using a micro-plate modification of the Burton diphenylamine (DPA) assay, which is used to calculate the level of cell proliferation.
# RPE is the ratio between the EC50 of the test chemical and the EC50 of the control substance 17-beta estradiol times 100, where EC50 is “effective concentration 50%” or half-maximum stimulation concentration for cell proliferation measured as total DNA in the MCF-7 assay.
row,SMILES,Log RPE
1,C[C@]12CC[C@@H]3c4ccc(O)cc4CC[C@H]3[C@@H]1CC[C@@H]2O [17β-estradiol],2.00
2,Oc1ccc(Cc2ccc(O)cc2)cc1 [Bisphenol F],−2
3,O=S(=O)(c1ccc(O)cc1)c1ccc(O)cc1 [Bisphenol S],−2
4,Oc1ccccc1Cc1ccccc1O [Structure 11],less than −4
5,CC(C)(C)c1cc(O)c(C(C)(C)C)cc1O [Structure 12],less than −4
